Square brackets hold non-standard residues; d marks the D form. Peptide text beside a SMILES is read from it. 3Pal = N[C@@H](Cc1cccnc1)C(=O)O; Aib = CC(C)(N)C(=O)O
Columns and labels:
[1] = physchem; settings: for solubility at 1 h: pH 7.4
Experimental: 1 or 5 mg of pre-lyophilized peptide in 2 mL Eppendorf tube was treated with 200-400 uL of phosphate buffer (PBS: 50 mM sodium phosphate, 150 mM of sodium chloride, pH7.4). Samples were then vortexed and sonicated for 10 min then equilibrated at RT for 1H, and then centrifuged at 10 krpms for 10 min Concentration of the peptides in obtained supernatant was determined by measuring UV absorbance at λ=280 nm. […] Concentration in aliquots was reassessed as previously with UV absorbance. Change in peptide concentration was evaluated after 48 h and 7 days of storage at 4° C.

[2] = target: glucagon receptor (Homo sapiens, UniProt P47871); experiment: Luciferase-based glucagon assay (cAMP reporter, HEK293 cells); settings: for EC50: read-out: EC50 [nM] (SDV), SDV in brackets; for EC50 / in vitro efficacy / potency (in words): luciferase-based glucagon assay; for % bioactivity of GCG: relative to native glucagon
Chain of glucagon receptor (P47871 26-477): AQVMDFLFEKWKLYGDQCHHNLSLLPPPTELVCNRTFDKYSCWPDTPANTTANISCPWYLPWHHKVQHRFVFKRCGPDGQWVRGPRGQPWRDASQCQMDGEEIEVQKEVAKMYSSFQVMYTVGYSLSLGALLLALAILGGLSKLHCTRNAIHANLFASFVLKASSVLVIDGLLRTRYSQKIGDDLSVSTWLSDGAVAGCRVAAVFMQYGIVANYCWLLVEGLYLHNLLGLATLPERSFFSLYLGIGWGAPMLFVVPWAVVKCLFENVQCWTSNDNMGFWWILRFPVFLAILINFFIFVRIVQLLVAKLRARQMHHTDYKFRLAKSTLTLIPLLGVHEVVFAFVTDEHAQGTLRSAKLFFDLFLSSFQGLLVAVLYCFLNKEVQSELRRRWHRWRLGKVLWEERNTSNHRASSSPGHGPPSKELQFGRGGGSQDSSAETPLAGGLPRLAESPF
Experimental: At the end of the incubation 100 microliters of LucLite luminescence substrate reagent (Perkin-Elmer, Wellesley, Mass.) were added to each well. […] The luminescent light output indicates activation of the luciferase reporter gene, which in turn is a measure of the activation of the receptor.

Structure (SMILES) | solubility at 1 h [1] [µg/mL] | EC50 [2] [nM] | % bioactivity of GCG [2] [%] | in vitro efficacy / potency (in words) [2] | solubility ([1]; pH 7) [µg/mL]
CSCC[C@H](NC(=O)[C@H](CC(C)C)NC(=O)[C@H](Cc1c[nH]c2ccccc12)NC(=O)[C@H](CCC(N)=O)NC(=O)[C@@H](NC(=O)[C@H](Cc1ccccc1)NC(=O)[C@H](CC(=O)O)NC(=O)[C@H](CCC(N)=O)NC(=O)[C@H](C)NC(=O)[C@H](CCCNC(=N)N)NC(=O)[C@H](CCCNC(=N)N)NC(=O)C(C)(C)NC(=O)[C@H](CC(=O)O)NC(=O)[C@H](CC(C)C)NC(=O)[C@H](Cc1ccncc1)NC(=O)[C@H](CCCCN)NC(=O)[C@H](CO)NC(=O)[C@H](Cc1ccncc1)NC(=O)[C@H](CC(=O)O)NC(=O)[C@H](CO)NC(=O)[C@@H](NC(=O)[C@H](Cc1ccncc1)NC(=O)[C@@H](NC(=O)CNC(=O)[C@H](CCC(N)=O)NC(=O)[C@H](CO)NC(=O)[C@@H](N)Cc1c[nH]cn1)[C@@H](C)O)[C@@H](C)O)C(C)C)C(=O)N[C@@H](CC(N)=O)C(=O)N[C@H](C(=O)O)[C@@H](C)O [Compound 10, HSQGTUTSDUSKULDZRRAQDFVQWLMNT] | > 10000 | 0.0843 | 24 | – | –
CSCC[C@H](NC(=O)[C@H](CC(C)C)NC(=O)[C@H](Cc1c[nH]c2ccccc12)NC(=O)[C@H](CCC(N)=O)NC(=O)[C@@H](NC(=O)[C@H](Cc1ccccc1)NC(=O)[C@H](CC(=O)O)NC(=O)[C@H](CCC(N)=O)NC(=O)[C@H](C)NC(=O)[C@H](CCCNC(=N)N)NC(=O)[C@H](CCCNC(=N)N)NC(=O)C(C)(C)NC(=O)[C@H](CC(=O)O)NC(=O)[C@H](CC(C)C)NC(=O)[C@H](Cc1cccnc1)NC(=O)[C@H](CCCCN)NC(=O)[C@H](CO)NC(=O)[C@H](Cc1ccc(O)cc1)NC(=O)[C@H](CC(=O)O)NC(=O)[C@H](CO)NC(=O)[C@@H](NC(=O)[C@H](Cc1ccccc1)NC(=O)[C@@H](NC(=O)CNC(=O)[C@H](CCC(N)=O)NC(=O)[C@H](CO)NC(=O)[C@@H](N)Cc1c[nH]cn1)[C@@H](C)O)[C@@H](C)O)C(C)C)C(=O)N[C@@H](CC(N)=O)C(=O)N[C@H](C(=O)O)[C@@H](C)O [Compound 5, HSQGTFTSDYSKXLDZRRAQDFVQWLMNT] | > 1000 | 0.0379 | 54 | – | –
CSCC[C@H](NC(=O)[C@H](CC(C)C)NC(=O)[C@H](Cc1c[nH]c2ccccc12)NC(=O)[C@H](CCC(N)=O)NC(=O)[C@@H](NC(=O)[C@H](Cc1ccccc1)NC(=O)[C@H](CC(=O)O)NC(=O)[C@H](CCC(N)=O)NC(=O)[C@H](C)NC(=O)[C@H](CCCNC(=N)N)NC(=O)[C@H](CCCNC(=N)N)NC(=O)C(C)(C)NC(=O)[C@H](CC(=O)O)NC(=O)[C@H](CC(C)C)NC(=O)[C@H](Cc1ccc(O)cc1)NC(=O)[C@H](CCCCN)NC(=O)[C@H](CO)NC(=O)[C@H](Cc1cccnc1)NC(=O)[C@H](CC(=O)O)NC(=O)[C@H](CO)NC(=O)[C@@H](NC(=O)[C@H](Cc1ccccc1)NC(=O)[C@@H](NC(=O)CNC(=O)[C@H](CCC(N)=O)NC(=O)[C@H](CO)NC(=O)[C@@H](N)Cc1c[nH]cn1)[C@@H](C)O)[C@@H](C)O)C(C)C)C(=O)N[C@@H](CC(N)=O)C(=O)N[C@H](C(=O)O)[C@@H](C)O [Compound 4, HSQGTFTSDXSKYLDZRRAQDFVQWLMNT] | > 1000 | 0.0268 | 76 | – | –
CSCC[C@H](NC(=O)[C@H](CC(C)C)NC(=O)[C@H](Cc1c[nH]c2ccccc12)NC(=O)[C@H](CCC(N)=O)NC(=O)[C@@H](NC(=O)[C@H](Cc1cccnc1)NC(=O)[C@H](CC(=O)O)NC(=O)[C@H](CCC(N)=O)NC(=O)[C@H](C)NC(=O)[C@H](CCCNC(=N)N)NC(=O)[C@H](CCCNC(=N)N)NC(=O)C(C)(C)NC(=O)[C@H](CC(=O)O)NC(=O)[C@H](CC(C)C)NC(=O)[C@H](Cc1cccnc1)NC(=O)[C@H](CCCCN)NC(=O)[C@H](CO)NC(=O)[C@H](Cc1cccnc1)NC(=O)[C@H](CC(=O)O)NC(=O)[C@H](CO)NC(=O)[C@@H](NC(=O)[C@H](Cc1cccnc1)NC(=O)[C@@H](NC(=O)CNC(=O)[C@H](CCC(N)=O)NC(=O)[C@H](CO)NC(=O)[C@@H](N)Cc1c[nH]cn1)[C@@H](C)O)[C@@H](C)O)C(C)C)C(=O)N[C@@H](CC(N)=O)C(=O)N[C@H](C(=O)O)[C@@H](C)O [Compound 11, HSQGTXTSDXSKXLDZRRAQDXVQWLMNT] (H-HSQGT[3Pal]TSD[3Pal]SK[3Pal]LD[Aib]RRAQD[3Pal]VQWLMNT-OH; N-terminus and C-terminus assumed) | – | 2.33 | 1 | lower potency | –
CSCC[C@H](NC(=O)[C@H](CC(C)C)NC(=O)[C@H](Cc1c[nH]c2ccccc12)NC(=O)[C@H](CCC(N)=O)NC(=O)[C@@H](NC(=O)[C@H](Cc1cccnc1)NC(=O)[C@H](CC(=O)O)NC(=O)[C@H](CCC(N)=O)NC(=O)[C@H](C)NC(=O)[C@H](CCCNC(=N)N)NC(=O)[C@H](CCCNC(=N)N)NC(=O)C(C)(C)NC(=O)[C@H](CC(=O)O)NC(=O)[C@H](CC(C)C)NC(=O)[C@H](Cc1cccnc1)NC(=O)[C@H](CCCCN)NC(=O)[C@H](CO)NC(=O)[C@H](Cc1cccnc1)NC(=O)[C@H](CC(=O)O)NC(=O)[C@H](CO)NC(=O)[C@@H](NC(=O)[C@H](Cc1cccnc1)NC(=O)[C@@H](NC(=O)CNC(=O)[C@H](CCC(N)=O)NC(=O)[C@H](CO)NC(=O)[C@@H](N)Cc1cnc[nH]1)[C@@H](C)O)[C@@H](C)O)C(C)C)C(=O)N[C@@H](CC(N)=O)C(=O)N[C@H](C(=O)O)[C@@H](C)O [Compound 11, HSQGTXTSDXSKXLDZRRAQDXVQWLMNT] (H-HSQGT[3Pal]TSD[3Pal]SK[3Pal]LD[Aib]RRAQD[3Pal]VQWLMNT-OH) | > 10000 | – | – | – | –
CSCC[C@H](NC(=O)[C@H](CC(C)C)NC(=O)[C@H](Cc1c[nH]c2ccccc12)NC(=O)[C@H](CCC(N)=O)NC(=O)[C@@H](NC(=O)[C@H](Cc1ccccc1)NC(=O)[C@H](CC(=O)O)NC(=O)[C@H](CCC(N)=O)NC(=O)[C@H](C)NC(=O)[C@H](CCCNC(=N)N)NC(=O)[C@H](CCCNC(=N)N)NC(=O)C(C)(C)NC(=O)[C@H](CC(=O)O)NC(=O)[C@H](CC(C)C)NC(=O)[C@H](Cc1ccncc1)NC(=O)[C@H](CCCCN)NC(=O)[C@H](CO)NC(=O)[C@H](Cc1ccncc1)NC(=O)[C@H](CC(=O)O)NC(=O)[C@H](CO)NC(=O)[C@@H](NC(=O)[C@H](Cc1ccccc1)NC(=O)[C@@H](NC(=O)CNC(=O)[C@H](CCC(N)=O)NC(=O)[C@H](CO)NC(=O)[C@@H](N)Cc1c[nH]cn1)[C@@H](C)O)[C@@H](C)O)C(C)C)C(=O)N[C@@H](CC(N)=O)C(=O)N[C@H](C(=O)O)[C@@H](C)O [Compound 8, HSQGTFTSDUSKULDZRRAQDFVQWLMNT] | > 10000 | 0.0309 | 66 | – | –
CSCC[C@H](NC(=O)[C@H](CC(C)C)NC(=O)[C@H](Cc1c[nH]c2ccccc12)NC(=O)[C@H](CCC(N)=O)NC(=O)[C@@H](NC(=O)[C@H](Cc1ccccc1)NC(=O)[C@H](CC(=O)O)NC(=O)[C@H](CCC(N)=O)NC(=O)[C@H](C)NC(=O)[C@H](CCCNC(=N)N)NC(=O)[C@H](CCCNC(=N)N)NC(=O)C(C)(C)NC(=O)[C@H](CC(=O)O)NC(=O)[C@H](CC(C)C)NC(=O)[C@H](Cc1cccnc1)NC(=O)[C@H](CCCCN)NC(=O)[C@H](CO)NC(=O)[C@H](Cc1cccnc1)NC(=O)[C@H](CC(=O)O)NC(=O)[C@H](CO)NC(=O)[C@@H](NC(=O)[C@H](Cc1ccccc1)NC(=O)[C@@H](NC(=O)CNC(=O)[C@H](CCC(N)=O)NC(=O)[C@H](CO)NC(=O)[C@@H](N)Cc1c[nH]cn1)[C@@H](C)O)[C@@H](C)O)C(C)C)C(=O)N[C@@H](CC(N)=O)C(=O)N[C@H](C(=O)O)[C@@H](C)O [Compound 7, HSQGTFTSDXSKXLDZRRAQDFVQWLMNT] | > 10000 | 0.0359 | 57 | fully potent | > 10000
CSCC[C@H](NC(=O)[C@H](CC(C)C)NC(=O)[C@H](Cc1c[nH]c2ccccc12)NC(=O)[C@H](CCC(N)=O)NC(=O)[C@@H](NC(=O)[C@H](Cc1ccccc1)NC(=O)[C@H](CC(=O)O)NC(=O)[C@H](CCC(N)=O)NC(=O)[C@H](C)NC(=O)[C@H](CCCNC(=N)N)NC(=O)[C@H](CCCNC(=N)N)NC(=O)C(C)(C)NC(=O)[C@H](CC(=O)O)NC(=O)[C@H](CC(C)C)NC(=O)[C@H](Cc1ccc(O)cc1)NC(=O)[C@H](CCCCN)NC(=O)[C@H](CO)NC(=O)[C@H](Cc1ccc(O)cc1)NC(=O)[C@H](CC(=O)O)NC(=O)[C@H](CO)NC(=O)[C@@H](NC(=O)[C@H](Cc1cccnc1)NC(=O)[C@@H](NC(=O)CNC(=O)[C@H](CCC(N)=O)NC(=O)[C@H](CO)NC(=O)[C@@H](N)Cc1c[nH]cn1)[C@@H](C)O)[C@@H](C)O)C(C)C)C(=O)N[C@@H](CC(N)=O)C(=O)N[C@H](C(=O)O)[C@@H](C)O [Compound 3, HSQGTXTSDYSKYLDZRRAQDFVQWLMNT] | > 1000 | 0.017 | 119 | – | –
CSCC[C@H](NC(=O)[C@H](CC(C)C)NC(=O)[C@H](Cc1c[nH]c2ccccc12)NC(=O)[C@H](CCC(N)=O)NC(=O)[C@@H](NC(=O)[C@H](Cc1ccccc1)NC(=O)[C@H](CC(=O)O)NC(=O)[C@H](CCC(N)=O)NC(=O)[C@H](C)NC(=O)[C@H](CCCNC(=N)N)NC(=O)[C@H](CCCNC(=N)N)NC(=O)C(C)(C)NC(=O)[C@H](CC(=O)O)NC(=O)[C@H](CC(C)C)NC(=O)[C@H](Cc1ccncc1)NC(=O)[C@H](CCCCN)NC(=O)[C@H](CO)NC(=O)[C@H](Cc1ccc(O)cc1)NC(=O)[C@H](CC(=O)O)NC(=O)[C@H](CO)NC(=O)[C@@H](NC(=O)[C@H](Cc1ccccc1)NC(=O)[C@@H](NC(=O)CNC(=O)[C@H](CCC(N)=O)NC(=O)[C@H](CO)NC(=O)[C@@H](N)Cc1c[nH]cn1)[C@@H](C)O)[C@@H](C)O)C(C)C)C(=O)N[C@@H](CC(N)=O)C(=O)N[C@H](C(=O)O)[C@@H](C)O [Compound 6, HSQGTFTSDYSKULDZRRAQDFVQWLMNT] | > 1000 | 0.0339 | 60 | – | –

— patent publication US10683334B2 (INDIANA UNIVERSITY RESEARCH AND TECHNOLOGY CORPORATION, priority 2016, dated 2020)
